{
  "source": "paper PMC9103351",
  "about": "“Effects of the Bark Resin Extract of Garcinia nigrolineata on Chronic Stress-Induced Memory Deficit in Mice Model and the In Vitro Monoamine Oxidases and β-Amyloid Aggregation Inhibitory Activities of Its Prenylated Xanthone Constituents” (Molecules, 2022)",
  "key": {"[1]": {"tested_on": "UCMS mice", "test": "Y-maze test in UCMS mice", "assay_type": "in vivo, ICR mice", "conditions": "100 mg/kg/day p.o., vs vehicle-treated UCMS group", "description": "(§1) Five-week-old male ICR mice (weight: 20–30 g), which were acquired from Nomura Siam International (Pathumwan, Bangkok, Thailand), were maintained at the Animal Unit of the Faculty of Pharmaceutical Sciences, Khon Kaen University. Mice were cared for in accordance with the Guiding Principles for the Care and Use of Animals (NIH Publications No. 80–23, revised in 2011). The facilities sustained a 12 h light/dark cycle, constant temperature (22 ± 2 °C), and humidity (45 ± 2%), with full access to food and drink. The current research was authorized by the Animal Ethics Committee for Use and Care of Khon Kaen University (IACUC-KKU-121/64)\nMice in the stress groups received mild stressors for 6 weeks. […]\nY-maze test was used to evaluate spontaneous alternation related to a sudden recall, a performance that was previously described by Kraeuter et al. with some modification. […] Mice were allowed to explore the maze for 4 min, during which their number and sequence of arms visits and spontaneous alternations were recorded. […] The measure of the animal recalling a memory is the percentage alternation, which was calculated by the following equation:% Alternation = [(Number of alternations)/(Total arm entries − 2)] × 100"}, "[2]": {"tested_on": "UCMS mice", "test": "Morris Water Maze Test (MWMT) in UCMS mice", "assay_type": "in vivo, ICR mice", "description": "as §1, with “20-30” for “20–30”, “80-23,” for “80–23,”, “(IACUC-KKU-121/64) Mice in the stress groups received mild stressors for 6 weeks. […] In each trial, the latency to reach the platform (escape latency) and the distance covered were recorded for 5 days. […] After completion of the probe test, the time spent in the target quadrant (Q1) was counted as an index of reference memory.” for “(IACUC-KKU-121/64)”"}},
  "data": [
    {"substance": "vitamin E", "values": [
      {"measurement": "percentage of spontaneous alternation (Y-maze)", "setting": "[1]", "value": "significantly increased"},
      {"measurement": "time spent in the target quadrant (MWMT probe, day 6)", "setting": "[2]; 100 mg/kg/day oral", "value": "significantly increased"},
      {"measurement": "escape latency (MWMT training)", "setting": "[2]; three weeks of treatment, days 3, 4 and 5", "value": "significantly reduced"}
    ]}
  ]
}
